Measured values: EP0490380B1, “Use of N,N'-bis 3-(ethylamino)propyl -1,7-heptanediamine and a cytotoxic agent” (MERRELL PHARMACEUTICALS INC., priority 1990, dated 1992)
Read-outs that look alike come from different tables or passages of the source. Marks after values point to notes of the source that are not given here.

What was measured:
[1] = tested on: MCA38 (mouse colon adenocarcinoma); assay: Cell viability by colorimetric MTT assay after 96 hour incubation, MCA38 cells; assay type: cell-based; conditions: for IC50: Mus musculus, 96 h
Method: (§1) In addition, the Fractional Inhibitory Concentration (FIC) for the various treatments was calculated. FIC's are an accepted measurement of synergy [Middleton and Westmacott, J.Antimicrobial Chemother. […] For two interacting drugs, the sum of the FIC's of each of the treatments expresses the extent of the synergistic interaction.
(§2) Where FIC is less than 1, there is synergy between the two treatments, where FIC is 1, there is no synergy (additive effect). The smaller the value for FIC, the greater the synergistic interaction.

[2] = tested on: HeLa cells; assay: Cell viability by colorimetric MTT assay after 96 hour incubation, HeLa cells; assay type: cell-based; conditions: for IC50: Homo sapiens, HeLa
Method: as §1, §2

[3] = tested on: L1210 Leukemia; assay: Conjunctive therapy of L1210 leukemia in vivo (survival); conditions: BDF1 male mice, 10^5 L1210 cells i.p. day 0, control 7.6±0.5
Method: Groups of 5 mice (BDF1 male) were inoculated i.p. with 10^5 L1210 leukemia cells on day 0. Vinblastine was administered at 0.5 mg/kg, i.p., on day 3. The compound N,N'-bis(3-(ethylamino) propyl]-1,7-heptanediamine was administered at 5 mg/kg, every 3 hours, 4 times per day, on days 4 and 5. Control group received no treatment after inoculation. Relative survival time was determined and expressed as % T/C (mean survival time treated/mean survival time control x 100). The results of these studies are presented in Table 1. Table 1

For `COc1cccc2c1C(=O)c1c(O)c3c(c(O)c1C2=O)C[C@@](O)(C(=O)CO)C[C@@H]3O[C@H]1C[C@H](N)[C@H](O)[C@H](C)O1` [Adriamycin, adriamycin], the IC50 ([1]; MCA 38 cells, 28,314 at 0 µg/mL (adriamycin alone), read-out: IC50 Adriamycin) was 7.9 ng/mL, the IC50 ([1]; MCA 38 cells, 28,314 at 0.39 µg/mL, read-out: IC50 Adriamycin) was 7.5 ng/mL and the IC50 ([1]; MCA 38 cells, 28,314 at 0.78 µg/mL, read-out: IC50 Adriamycin) was 7.3 ng/mL. The IC50 ([1]; MCA 38 cells, 28,314 at 1.563 µg/mL, read-out: IC50 Adriamycin) was 7 ng/mL, the IC50 ([1]; MCA 38 cells, 28,314 at 3.125 µg/mL, read-out: IC50 Adriamycin) was 6.3 ng/mL and the IC50 ([1]; MCA 38 cells, 28,314 at 6.25 µg/mL, read-out: IC50 Adriamycin) was 2.5 ng/mL. It also gave an IC50 ([1]; MCA 38 cells, 28,314 at 12.5 µg/mL, read-out: IC50 Adriamycin) of 1.8 ng/mL, an IC50 ([2]; 96 h, 28,314 at 0 µg/mL (adriamycin alone), read-out: IC50 Adriamycin) of 8.6 ng/mL and an IC50 ([2]; 96 h, 28,314 at 0.2 µg/mL, read-out: IC50 Adriamycin) of 6.7 ng/mL. The IC50 ([2]; 96 h, 28,314 at 0.39 µg/mL, read-out: IC50 Adriamycin) was 5.8 ng/mL, the IC50 ([2]; 96 h, 28,314 at 0.78 µg/mL, read-out: IC50 Adriamycin) was 4.8 ng/mL and the IC50 ([2]; 96 h, 28,314 at 1.5625 µg/mL, read-out: IC50 Adriamycin) was 1.5 ng/mL.
With `Nc1ccn([C@@H]2O[C@H](CO)[C@@H](O)[C@@H]2O)c(=O)n1` [AraC, cytarabine] the IC50 ([1]; MCA 38 cells, 28,314 at 0 µg/mL (AraC alone), read-out: IC50 AraC) was 660 ng/mL, the IC50 ([1]; MCA 38 cells, 28,314 at 0.1563 µg/mL, read-out: IC50 AraC) was 596 ng/mL and the IC50 ([1]; MCA 38 cells, 28,314 at 0.3125 µg/mL, read-out: IC50 AraC) was 488 ng/mL. It also gave an IC50 ([1]; MCA 38 cells, 28,314 at 0.625 µg/mL, read-out: IC50 AraC) of 360 ng/mL, an IC50 ([1]; MCA 38 cells, 28,314 at 1.25 µg/mL, read-out: IC50 AraC) of 230 ng/mL and an IC50 ([1]; MCA 38 cells, 28,314 at 2.5 µg/mL, read-out: IC50 AraC) of 71 ng/mL. It also gave an IC50 ([2]; 96 h, 28,314 at 0 µg/mL (AraC alone), read-out: IC50 AraC) of 1020 ng/mL, an IC50 ([2]; 96 h, 28,314 at 0.1563 µg/mL, read-out: IC50 AraC) of 630 ng/mL and an IC50 ([2]; 96 h, 28,314 at 0.3125 µg/mL, read-out: IC50 AraC) of 600 ng/mL. It also gave an IC50 ([2]; 96 h, 28,314 at 0.625 µg/mL, read-out: IC50 AraC) of 530 ng/mL, an IC50 ([2]; 96 h, 28,314 at 1.25 µg/mL, read-out: IC50 AraC) of 370 ng/mL and an IC50 ([2]; 96 h, 28,314 at 2.5 µg/mL, read-out: IC50 AraC) of 350 ng/mL. The IC50 ([2]; 96 h, 28,314 at 5 µg/mL, read-out: IC50 AraC) was 220 ng/mL, the IC50 ([2]; 96 h, 28,314 at 10 µg/mL, read-out: IC50 AraC) was 150 ng/mL and the IC50 ([2]; 96 h, 28,314 at 20 µg/mL, read-out: IC50 AraC) was 140 ng/mL. The IC50 ([2]; 96 h, 28,314 at 40 µg/mL, read-out: IC50 AraC) was 140 ng/mL and the IC50 ([2]; 96 h, 28,314 at 80 µg/mL, read-out: IC50 AraC) was 140 ng/mL.
`N.N.[Cl][Pt][Cl]` [Cisplatin] was tested, and the “IC50 Cisplatin” value ([1]; MCA 38 cells, 28,314 at 0 µg/mL (cisplatin alone)) was 0.847 µg/mL, the “IC50 Cisplatin” value ([1]; MCA 38 cells, 28,314 at 0.2 µg/mL) was 0.58 µg/mL and the “IC50 Cisplatin” value ([1]; MCA 38 cells, 28,314 at 0.39 µg/mL) was 0.387 µg/mL. For the same molecule, the “IC50 Cisplatin” value ([1]; MCA 38 cells, 28,314 at 0.78 µg/mL) was 0.376 µg/mL, the “IC50 Cisplatin” value ([1]; MCA 38 cells, 28,314 at 1.56 µg/mL) was 0.276 µg/mL and the “IC50 Cisplatin” value ([1]; MCA 38 cells, 28,314 at 3.125 µg/mL) was 0.177* µg/mL. The “IC50 Cisplatin” value ([1]; MCA 38 cells, 28,314 at 6.25 µg/mL) was 0.165 µg/mL, the “IC50 Cisplatin” value ([1]; MCA 38 cells, 28,314 at 12.5 µg/mL) was 0.053 µg/mL and the “IC50 Cisplatin” value ([2]; 28,314 at 0 µg/mL (cisplatin alone)) was 0.359 µg/mL. For the same molecule, the “IC50 Cisplatin” value ([2]; 28,314 at 0.39 µg/mL) was 0.336 µg/mL, the “IC50 Cisplatin” value ([2]; 28,314 at 0.78 µg/mL) was 0.276 µg/mL and the “IC50 Cisplatin” value ([2]; 28,314 at 1.563 µg/mL) was 0.186 µg/mL. For the same molecule, the “IC50 Cisplatin” value ([2]; 28,314 at 3.125 µg/mL) was 0.130 µg/mL, the “IC50 Cisplatin” value ([2]; 28,314 at 6.25 µg/mL) was 0.088 µg/mL and the “IC50 Cisplatin” value ([2]; 28,314 at 12.5 µg/mL) was 0.074* µg/mL. For the same molecule, the “IC50 Cisplatin” value ([2]; 28,314 at 25 µg/mL) was 0.068 µg/mL, the “IC50 Cisplatin” value ([2]; 28,314 at 50 µg/mL) was 0.068 µg/mL and the “IC50 Cisplatin” value ([2]; 28,314 at 100 µg/mL) was 0.057 µg/mL.
In the case of `CCNCCCNCCCCCCCNCCCNCC` [Compound 28,314, N,N'-Bis[3-(ethylamino)propyl]-1,7-heptanediamine], the “Mean Survival Time” value ([3]; 28,314 5 mg/kg every 3 hours, 4 times per day (20 mg/Kg/day), days 4,5) is reported as 12.6 ± 0.9 days, the IC50 ([1]; MCA 38 cells, Table 2 (cisplatin series), read-out: IC50 28,314 alone) is reported as 17700 ng/mL and the IC50 ([1]; MCA 38 cells, Table 3 (adriamycin series), read-out: IC50 28,314 alone) is reported as 25000 ng/mL. The IC50 ([1]; MCA 38 cells, Table 4 (AraC series), read-out: IC50 28,314 alone) was 3540 ng/mL, the IC50 ([1]; MCA 38 cells, Table 5 (vinblastine series), read-out: IC50 28,314 alone) was 10000 ng/mL and the IC50 ([2]; 96 h, Table 6 (cisplatin series), read-out: IC50 28,314 alone) was roughly 200000 ng/mL. The IC50 ([2]; 96 h, Table 7 (adriamycin series), read-out: IC50 28,314 alone) was 1590 ng/mL and the IC50 ([2]; 96 h, Table 8 (AraC series), read-out: IC50 28,314 alone) was roughly 160000 ng/mL.
In the case of `CC[C@]1(O)C[C@@H]2CN(CCc3c([nH]c4ccccc34)[C@@](C(=O)OC)(c3cc4c(cc3OC)N(C)[C@H]3[C@@](O)(C(=O)OC)[C@H](OC(C)=O)[C@]5(CC)C=CCN6CC[C@]43[C@@H]65)C2)C1` [Vinblastine, vinblastine], the “Mean Survival Time” value ([3]; Vinblastine 0.5 mg/kg i.p. day 3) is reported as 10.0 ± 0.7 days, the IC50 ([1]; MCA 38 cells, 28,314 at 0 µg/mL (vinblastine alone), read-out: IC50 Vinblastin) is reported as 59.5 ng/mL and the IC50 ([1]; MCA 38 cells, 28,314 at 0.1563 µg/mL, read-out: IC50 Vinblastin) is reported as 54.8 ng/mL. It also gave an IC50 ([1]; MCA 38 cells, 28,314 at 0.3125 µg/mL, read-out: IC50 Vinblastin) of 43 ng/mL, an IC50 ([1]; MCA 38 cells, 28,314 at 0.625 µg/mL, read-out: IC50 Vinblastin) of 33 ng/mL and an IC50 ([1]; MCA 38 cells, 28,314 at 1.25 µg/mL, read-out: IC50 Vinblastin) of 25 ng/mL. The IC50 ([1]; MCA 38 cells, 28,314 at 2.5 µg/mL, read-out: IC50 Vinblastin) was 15 ng/mL, the IC50 ([1]; MCA 38 cells, 28,314 at 5.0 µg/mL, read-out: IC50 Vinblastin) was 3 ng/mL and the IC50 ([2]; 96 h, 28,314 at 0 µg/mL (vinblastine alone), read-out: IC50 Vinblastin) was 1.6 ng/mL. It also gave an IC50 ([2]; 96 h, 28,314 at 0.1563 µg/mL, read-out: IC50 Vinblastin) of 1.33 ng/mL, an IC50 ([2]; 96 h, 28,314 at 0.3125 µg/mL, read-out: IC50 Vinblastin) of 1.33 ng/mL and an IC50 ([2]; 96 h, 28,314 at 0.625 µg/mL, read-out: IC50 Vinblastin) of 1.19 ng/mL. The IC50 ([2]; 96 h, 28,314 at 1.25 µg/mL, read-out: IC50 Vinblastin) was 1.17 ng/mL, the IC50 ([2]; 96 h, 28,314 at 2.5 µg/mL, read-out: IC50 Vinblastin) was 0.63 ng/mL and the IC50 ([2]; 96 h, 28,314 at 5 µg/mL, read-out: IC50 Vinblastin) was 0.24 ng/mL. The IC50 ([2]; 96 h, 28,314 at 10 µg/mL, read-out: IC50 Vinblastin) was 0.11 ng/mL and the IC50 ([2]; 96 h, 28,314 at 20 µg/mL, read-out: IC50 Vinblastin) was 0.09 ng/mL.
